Measurements taken from the SangsterLogP compilation.

| SMILES | logP |
| --- | --- |
| CCCCNc1ccc(C(=O)OCCN(C)C)cc1 | 3.46 |
| NCc1ccccc1 | 1.1 |
| C=C[C@H]1CN2CC[C@H]1C[C@@H]2[C@@H](O)c1ccnc2ccc(OC)cc12 | 2.77 |
| CN1CCOC(c2ccccc2)c2ccccc2C1 (centres undefined) | 3.02 |
| NS(=O)(=O)c1cc(C2(O)NC(=O)c3ccccc32)ccc1Cl (centres undefined) | 1.17 |
| NC(=O)NN=Cc1ccc([N+](=O)[O-])o1 | 0.74 |
| CC(=O)O[C@]1(C(=O)CO)CC[C@H]2[C@@H]3CCC4=CC(=O)CC[C@]4(C)[C@H]3[C@@H](O)C[C@@]21C | 2.17 |

Continued, values first:

| logP | SMILES |
| --- | --- |
| 1.58 | Cc1ccnc(C)c1 |
| 0.4 | Nc1ccccn1 |
| 1.82 | Cc1cccc(CN)c1 |
| 1.62 | Cc1ccccc1CN |
| 1.45 | CC(N)c1ccccc1 (centres undefined) |
| 1.74 | Cc1cncc(C)c1 |
| 2.09 | Cc1cc(C)cc(N)c1 |
